Measured values: BindingDB's records for doi:10.1021/jm00080a021 (Notre-Dame Hospital Research, 1992)

The compounds below were run against Ribonucleoside-diphosphate reductase large subunit R1 (Herpes simplex virus type 1) (assay: Inhibitory concentration against HSV-1 ribonucleotide reductase R1 protein binding).

IC50	Compound
640 µM	CC[C@H](C)[C@H](NC(=O)[C@@H](NC(=O)[C@@H](NC(=O)CNC(=O)[C@H](C)NC(=O)[C@H](Cc1ccc(O)cc1)NC(C)=O)[C@@H](C)O)C(C)C)C(=O)N[C@@H](CC(N)=O)C(=O)N[C@@H](CC(N)=O)C(=O)N[C@@H](CC(C)C)C(=O)O
> 1000 µM	CC(=O)N[C@@H](Cc1ccc(O)cc1)C(=O)N[C@@H](C)C(=O)NCC(=O)N[C@H](C(=O)N[C@H](C(=O)N[C@@H](C(=O)N[C@@H](CC(N)=O)C(=O)N[C@@H](CC(=O)O)C(=O)N[C@@H](CC(C)C)C(=O)O)C(C)C)C(C)C)[C@@H](C)O [2-{2-[2-(2-{2-[2-(2-{2-[2-Acetylamino-3-(4-hydroxy-phenyl)-propionylamino]-propionylamino}-acetylamino)-3-hydroxy-butyrylamino]-3-methyl-butyrylamino}-3-methyl-butyrylamino)-3-carbamoyl-propionylamino]-3-carboxy-propionylamino}-4-methyl-pentanoicacid]
650 µM	CC[C@H](C)[C@H](NC(=O)[C@@H](NC(=O)[C@@H](NC(=O)CNC(=O)[C@H](C)NC(=O)[C@H](Cc1ccc(O)cc1)NC(C)=O)[C@@H](C)O)C(C)C)C(=O)N[C@@H](CC(N)=O)C(=O)N[C@@H](CCC(=O)O)C(=O)N[C@@H](CC(C)C)C(=O)O [2-{2-[2-(2-{2-[2-(2-{2-[2-Acetylamino-3-(4-hydroxy-phenyl)-propionylamino]-propionylamino}-acetylamino)-3-hydroxy-butyrylamino]-3-methyl-butyrylamino}-3-methyl-pentanoylamino)-3-carbamoyl-propionylamino]-4-carboxy-butyrylamino}-4-methyl-pentanoicacid]
395 µM	CC[C@H](C)[C@H](NC(=O)[C@@H](NC(=O)[C@@H](NC(=O)CNC(=O)[C@H](C)NC(=O)[C@H](Cc1ccc(O)cc1)NC(C)=O)[C@@H](C)O)C(C)C)C(=O)N[C@@H](CO)C(=O)N[C@@H](CC(=O)O)C(=O)N[C@@H](CC(C)C)C(=O)O [2-{2-[2-(2-{2-[2-(2-{2-[2-Acetylamino-3-(4-hydroxy-phenyl)-propionylamino]-propionylamino}-acetylamino)-3-hydroxy-butyrylamino]-3-methyl-butyrylamino}-3-methyl-pentanoylamino)-3-hydroxy-propionylamino]-3-carboxy-propionylamino}-4-methyl-pentanoicacid]
> 1000 µM	Ac-YAGTVINCL-OH [2-{2-[2-(2-{2-[2-(2-{2-[2-Acetylamino-3-(4-hydroxy-phenyl)-propionylamino]-propionylamino}-acetylamino)-3-hydroxy-butyrylamino]-3-methyl-butyrylamino}-3-methyl-pentanoylamino)-3-carbamoyl-propionylamino]-3-mercapto-propionylamino}-4-methyl-pentanoic acid]
> 1000 µM	Ac-YAGTVINSL-OH [2-{2-[2-(2-{2-[2-(2-{2-[2-Acetylamino-3-(4-hydroxy-phenyl)-propionylamino]-propionylamino}-acetylamino)-3-hydroxy-butyrylamino]-3-methyl-butyrylamino}-3-methyl-pentanoylamino)-3-carbamoyl-propionylamino]-3-hydroxy-propionylamino}-4-methyl-pentanoic acid]
